Source: the NIST ThermoML archive (doi:10.1016/j.jct.2012.09.012)
± gives the expanded uncertainty stated by the source.

What was measured:
[1] = Liquid, Vibrating tube method
[2] = molar heat capacity at constant pressure; details: 101 kPa, Liquid, Small sample (50 mg) DSC
[3] = xn = mol fraction of the nth substance listed; details: Liquid, Vibrating tube method, x2 = 0
[4] = molar heat capacity at constant pressure; xn = mol fraction of the nth substance listed; details: 101 kPa, Liquid, Small sample (50 mg) DSC, x2 = 0

CC1=CC[C@H]2C[C@@H]1C2(C)C [(S)-2-pinene]
mass density [kg/m3], [1]
Details	283.15 K	298.15 K	313.15 K	328.15 K	343.15 K	358.15 K
20000 kPa	880 ± 1.2	868.8 ± 1.2	858 ± 1.2	846.7 ± 1.2	835.9 ± 1.2	825 ± 1.2
25000 kPa	883.2 ± 1.2	872.1 ± 1.2	861.3 ± 1.2	850.4 ± 1.2	839.7 ± 1.2	829.2 ± 1.2
30000 kPa	886.3 ± 1.3	875.3 ± 1.3	864.7 ± 1.3	854 ± 1.3	843.8 ± 1.3	833.3 ± 1.3
35000 kPa	889.4 ± 1.3	878.6 ± 1.3	867.9 ± 1.3	857.5 ± 1.3	847.7 ± 1.3	837.4 ± 1.3
40000 kPa	892.5 ± 1.3	881.9 ± 1.3	871.3 ± 1.3	861.1 ± 1.3	851.4 ± 1.3	841.5 ± 1.3

[2]
Details	molar heat capacity at constant pressure [J/K/mol]
313.16 K	250.67 ± 8.2
318.16 K	252.03 ± 8.2
323.16 K	256.12 ± 8.2
328.22 K	257.48 ± 8.2
333.22 K	260.21 ± 8.2
338.19 K	264.29 ± 8.2
343.18 K	267.02 ± 9.5
348.15 K	269.74 ± 9.5
353.18 K	272.47 ± 9.5
358.15 K	275.19 ± 9.5
363.18 K	277.92 ± 9.5
368.17 K	279.28 ± 9.5
373.21 K	282 ± 9.5
378.2 K	284.73 ± 9.5
383.17 K	287.45 ± 9.5
388.2 K	291.54 ± 9.5
393.17 K	292.9 ± 9.5
398.2 K	294.27 ± 9.5
403.19 K	296.99 ± 9.5
408.16 K	299.71 ± 9.5
413.19 K	301.08 ± 9.5
418.19 K	303.8 ± 9.5

C=C1CCC2CC1C2(C)C (stereo not drawn) [β-pinene]
mass density [kg/m3], [1]
Details	283.15 K	298.15 K	313.15 K	328.15 K	343.15 K	358.15 K
20000 kPa	891.3 ± 1	880.2 ± 1	869.3 ± 1	858.2 ± 1	847.7 ± 1.1	837 ± 1.1
25000 kPa	894.2 ± 1	883.3 ± 1	872.6 ± 1.1	861.7 ± 1.1	851.4 ± 1.1	840.9 ± 1.1
30000 kPa	897 ± 1.1	886.3 ± 1.1	875.7 ± 1.1	865.2 ± 1.1	855 ± 1.1	844.8 ± 1.1
35000 kPa	899.9 ± 1.1	889.3 ± 1.1	878.8 ± 1.1	868.7 ± 1.1	858.6 ± 1.1	848.7 ± 1.1
40000 kPa	902.6 ± 1.1	892.2 ± 1.1	882 ± 1.1	872.2 ± 1.1	862.1 ± 1.1	852.6 ± 1.1

[2]
Details	molar heat capacity at constant pressure [J/K/mol]
313.16 K	249.31 ± 8.2
318.16 K	252.03 ± 8.2
323.16 K	254.76 ± 8.2
328.22 K	257.48 ± 8.2
333.22 K	260.21 ± 8.2
338.19 K	262.93 ± 8.2
343.18 K	265.66 ± 8.2
348.15 K	268.38 ± 9.5
353.18 K	271.11 ± 9.5
358.15 K	273.83 ± 9.5
363.18 K	277.92 ± 9.5
368.17 K	280.64 ± 9.5
373.21 K	283.37 ± 9.5
378.2 K	284.73 ± 9.5
383.17 K	287.45 ± 9.5
388.2 K	290.18 ± 9.5
393.17 K	292.9 ± 9.5
398.2 K	295.63 ± 9.5
403.19 K	299.71 ± 9.5
408.16 K	302.44 ± 9.5
413.19 K	303.8 ± 9.5
418.19 K	306.53 ± 9.5

C=C1CCC2CC1C2(C)C (stereo not drawn) [β-pinene] + CC1=CC[C@H]2C[C@@H]1C2(C)C
mass density [kg/m3], [3]
Details	283.15 K	298.15 K	313.15 K	328.15 K	343.15 K	358.15 K
20000 kPa	891.3 ± 1	880.2 ± 1	869.3 ± 1	858.2 ± 1	847.7 ± 1.1	837 ± 1.1
25000 kPa	894.2 ± 1	883.3 ± 1	872.6 ± 1.1	861.7 ± 1.1	851.4 ± 1.1	840.9 ± 1.1
30000 kPa	897 ± 1.1	886.3 ± 1.1	875.7 ± 1.1	865.2 ± 1.1	855 ± 1.1	844.8 ± 1.1
35000 kPa	899.9 ± 1.1	889.3 ± 1.1	878.8 ± 1.1	868.7 ± 1.1	858.6 ± 1.1	848.7 ± 1.1
40000 kPa	902.6 ± 1.1	892.2 ± 1.1	882 ± 1.1	872.2 ± 1.1	862.1 ± 1.1	852.6 ± 1.1

[4]
Details	molar heat capacity at constant pressure [J/K/mol]
313.16 K	249.31 ± 8.2
318.16 K	252.03 ± 8.2
323.16 K	254.76 ± 8.2
328.22 K	257.48 ± 8.2
333.22 K	260.21 ± 8.2
338.19 K	262.93 ± 8.2
343.18 K	265.66 ± 8.2
348.15 K	268.38 ± 9.5
353.18 K	271.11 ± 9.5
358.15 K	273.83 ± 9.5
363.18 K	277.92 ± 9.5
368.17 K	280.64 ± 9.5
373.21 K	283.37 ± 9.5
378.2 K	284.73 ± 9.5
383.17 K	287.45 ± 9.5
388.2 K	290.18 ± 9.5
393.17 K	292.9 ± 9.5
398.2 K	295.63 ± 9.5
403.19 K	299.71 ± 9.5
408.16 K	302.44 ± 9.5
413.19 K	303.8 ± 9.5
418.19 K	306.53 ± 9.5
